From patent US11739098B2 (BRISTOL-MYERS SQUIBB COMPANY, priority 2017, dated 2023)

What was measured:
Format in all cases: cell-based
human TLR8 = molecular target: T1, human TLR8 (Homo sapiens, UniProt Q9NR97); assay: TLR8 inhibition reporter assay (HEK-Blue cells, SEAP reporter, R848 stimulation); details: HEK-Blue cells overexpressing human TLR8, SEAP reporter, R848 15.9 μM
T1 construct: host or cells: HEK-Blue cells (HEK293-derived reporter line)
T1 sequence (Q9NR97 27-1041): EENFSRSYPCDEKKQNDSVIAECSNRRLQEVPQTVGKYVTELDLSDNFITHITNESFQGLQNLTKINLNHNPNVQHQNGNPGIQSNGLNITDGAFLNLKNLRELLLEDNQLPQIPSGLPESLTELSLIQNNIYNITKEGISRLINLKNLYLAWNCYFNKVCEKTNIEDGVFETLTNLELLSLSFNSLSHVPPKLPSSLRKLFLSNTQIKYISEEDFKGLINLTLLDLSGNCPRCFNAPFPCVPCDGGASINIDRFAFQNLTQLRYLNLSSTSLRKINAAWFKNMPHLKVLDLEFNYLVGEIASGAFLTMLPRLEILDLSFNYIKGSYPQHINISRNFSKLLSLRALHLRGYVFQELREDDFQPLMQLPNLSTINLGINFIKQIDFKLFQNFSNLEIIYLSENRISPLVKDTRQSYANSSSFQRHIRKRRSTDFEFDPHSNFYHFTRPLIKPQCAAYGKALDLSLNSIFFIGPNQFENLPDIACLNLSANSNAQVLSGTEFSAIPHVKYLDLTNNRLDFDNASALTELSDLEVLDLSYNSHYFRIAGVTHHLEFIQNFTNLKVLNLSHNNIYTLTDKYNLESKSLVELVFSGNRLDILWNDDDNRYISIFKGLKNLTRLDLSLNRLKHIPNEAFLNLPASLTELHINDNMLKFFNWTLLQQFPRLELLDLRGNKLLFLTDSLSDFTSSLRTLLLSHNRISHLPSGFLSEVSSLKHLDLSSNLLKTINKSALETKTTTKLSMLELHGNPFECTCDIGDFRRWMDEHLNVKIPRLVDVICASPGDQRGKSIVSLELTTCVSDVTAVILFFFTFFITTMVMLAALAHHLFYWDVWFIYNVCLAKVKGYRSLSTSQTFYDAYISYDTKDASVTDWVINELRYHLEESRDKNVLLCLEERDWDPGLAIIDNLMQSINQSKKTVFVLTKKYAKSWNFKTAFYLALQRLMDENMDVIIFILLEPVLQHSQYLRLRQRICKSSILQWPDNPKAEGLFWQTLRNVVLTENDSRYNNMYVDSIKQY
Outline: (§1)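 Agonists (final): TLR7 gardiquimod 7.5 μM; TLR8 R848 15.9 μM; TLR9 ODN2006 5 nM. HEK-Blue reporter cells, 30 min RT compound pre-incubation, 0.05 nM–50 μM dose range, 22 h at 37 °C, colorimetric SEAP detection medium. % inhibition relative to agonist+DMSO and known-inhibitor wells.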

human TLR7 = molecular target: T2, human TLR7 (Homo sapiens, UniProt Q9NYK1); assay: TLR7 inhibition reporter assay (HEK-Blue cells, SEAP reporter, gardiquimod stimulation); details: HEK-Blue cells overexpressing human TLR7, SEAP reporter, gardiquimod 7.5 μM
T2 construct: host or cells: HEK-Blue cells (HEK293-derived reporter line)
T2 sequence (Q9NYK1 27-1049): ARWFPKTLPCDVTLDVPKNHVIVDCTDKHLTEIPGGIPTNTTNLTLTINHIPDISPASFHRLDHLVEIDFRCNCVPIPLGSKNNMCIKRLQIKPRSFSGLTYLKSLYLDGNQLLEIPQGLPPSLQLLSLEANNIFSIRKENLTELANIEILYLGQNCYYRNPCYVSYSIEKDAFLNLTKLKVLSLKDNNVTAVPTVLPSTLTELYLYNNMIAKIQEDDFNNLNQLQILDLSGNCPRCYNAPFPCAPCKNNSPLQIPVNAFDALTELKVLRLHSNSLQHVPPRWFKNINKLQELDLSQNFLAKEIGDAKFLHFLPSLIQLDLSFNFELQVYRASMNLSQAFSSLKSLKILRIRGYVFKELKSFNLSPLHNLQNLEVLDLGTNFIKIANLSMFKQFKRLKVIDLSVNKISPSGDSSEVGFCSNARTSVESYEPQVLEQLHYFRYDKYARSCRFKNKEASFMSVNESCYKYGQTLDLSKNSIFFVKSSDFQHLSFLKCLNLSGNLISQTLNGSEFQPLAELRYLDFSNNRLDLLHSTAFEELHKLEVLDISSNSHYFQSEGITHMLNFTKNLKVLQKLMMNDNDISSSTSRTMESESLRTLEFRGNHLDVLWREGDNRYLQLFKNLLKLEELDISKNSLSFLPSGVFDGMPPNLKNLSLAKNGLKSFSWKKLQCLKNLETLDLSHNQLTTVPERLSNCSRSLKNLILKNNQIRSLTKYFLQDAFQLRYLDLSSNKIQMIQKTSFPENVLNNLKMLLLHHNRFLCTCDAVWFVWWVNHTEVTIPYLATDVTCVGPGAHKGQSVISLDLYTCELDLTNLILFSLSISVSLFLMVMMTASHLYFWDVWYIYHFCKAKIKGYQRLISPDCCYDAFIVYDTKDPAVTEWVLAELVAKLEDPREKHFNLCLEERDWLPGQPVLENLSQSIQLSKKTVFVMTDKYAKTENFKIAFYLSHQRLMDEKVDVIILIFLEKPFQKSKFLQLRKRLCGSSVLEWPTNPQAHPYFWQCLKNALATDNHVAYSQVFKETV
Outline: as §1

human TLR9 = molecular target: T3, human TLR9 (Homo sapiens, UniProt Q9NR96); assay: TLR9 inhibition reporter assay (HEK-Blue cells, SEAP reporter, ODN2006 stimulation); details: HEK-Blue cells overexpressing human TLR9, SEAP reporter, ODN2006 5 nM
T3 construct: host or cells: HEK-Blue cells (HEK293-derived reporter line)
T3 sequence (Q9NR96 26-1032): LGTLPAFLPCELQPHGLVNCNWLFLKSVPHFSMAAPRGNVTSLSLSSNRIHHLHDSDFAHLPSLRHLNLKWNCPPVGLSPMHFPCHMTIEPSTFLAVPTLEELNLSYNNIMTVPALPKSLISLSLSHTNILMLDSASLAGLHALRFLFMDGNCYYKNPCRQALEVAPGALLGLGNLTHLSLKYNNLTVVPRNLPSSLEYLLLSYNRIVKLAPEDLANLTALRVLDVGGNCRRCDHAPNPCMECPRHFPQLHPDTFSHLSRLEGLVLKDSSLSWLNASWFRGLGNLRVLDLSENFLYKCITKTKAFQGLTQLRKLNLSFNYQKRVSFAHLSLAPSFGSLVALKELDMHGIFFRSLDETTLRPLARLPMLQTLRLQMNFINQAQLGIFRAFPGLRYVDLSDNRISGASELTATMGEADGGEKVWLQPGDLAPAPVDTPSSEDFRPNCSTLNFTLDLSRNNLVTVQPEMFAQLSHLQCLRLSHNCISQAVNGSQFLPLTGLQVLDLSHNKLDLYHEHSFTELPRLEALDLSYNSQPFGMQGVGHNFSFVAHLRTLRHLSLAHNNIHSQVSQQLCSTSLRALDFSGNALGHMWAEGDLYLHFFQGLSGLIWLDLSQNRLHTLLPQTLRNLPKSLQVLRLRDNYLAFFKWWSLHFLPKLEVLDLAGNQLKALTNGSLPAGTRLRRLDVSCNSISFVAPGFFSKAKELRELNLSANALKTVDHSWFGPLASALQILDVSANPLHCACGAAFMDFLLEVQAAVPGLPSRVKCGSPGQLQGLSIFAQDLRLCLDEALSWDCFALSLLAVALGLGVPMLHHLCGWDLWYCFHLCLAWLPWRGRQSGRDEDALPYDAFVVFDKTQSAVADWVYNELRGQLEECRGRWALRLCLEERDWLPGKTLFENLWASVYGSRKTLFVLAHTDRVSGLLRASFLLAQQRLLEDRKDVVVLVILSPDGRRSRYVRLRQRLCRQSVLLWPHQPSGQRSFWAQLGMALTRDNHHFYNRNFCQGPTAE
Outline: as §1

IC50 (human TLR8)	IC50 (human TLR7)	IC50 (human TLR9)	Structure (SMILES)
< 100 nM	< 100 nM	1000 to 50000 nM	COc1cc(-c2[nH]c3ccc(C4CCN(CCS(C)(=O)=O)CC4)cc3c2C(C)C)cc2ncnn12 [Example 797, 7-(3-isopropyl-5-(1-(2-(methylsulfonyl)ethyl)piperidin-4-yl)-1H-indol-2-yl)-5-methoxy-[1,2,4]triazolo[1,5-a]pyridine]
< 100 nM	< 100 nM	1000 to 50000 nM	CC(C)c1c(-c2ccnc3[nH]ccc23)[nH]c2ccc(C3CCNCC3)cc12 [Example 1, 4-(3-isopropyl-5-(piperidin-4-yl)-1H-indol-2-yl)-1H-pyrrolo[2,3-b]pyridine]
1000 to 50000 nM	< 100 nM	100 to 1000 nM	CNCC(=O)N1CCC(c2ccc3[nH]c(-c4cc(F)c5nccn5c4)c(CC(F)F)c3c2)CC1 [Example 545, 1-(4-(3-(2,2-difluoroethyl)-2-(8-fluoroimidazo[1,2-a]pyridin-6-yl)-1H-indol-5-yl)piperidin-1-yl)-2-(methylamino)ethan-1-one]
< 100 nM	< 100 nM	1000 to 50000 nM	COc1c(C)c(-c2[nH]c3ccc(C4CCN(C(=O)CN(C)C)CC4)cc3c2C(C)C)nn2ncnc12 [Example 451, 2-(dimethylamino)-1-(4-(3-isopropyl-2-(8-methoxy-7-methyl-[1,2,4]triazolo[1,5-b]pyridazin-6-yl)-1H-indol-5-yl)piperidin-1-yl)ethan-1-one]
< 100 nM	100 to 1000 nM	1000 to 50000 nM	CC(C)c1c(-c2cn3ccnc3cc2C(F)(F)F)[nH]c2ccc(C3CCN(CC(=O)N(C)C)CC3)cc12 [Example 427, 2-(4-(3-isopropyl-2-(7-(trifluoromethyl)imidazo[1,2-a]pyridin-6-yl)-1H-indol-5-yl)piperidin-1-yl)-N,N-dimethylacetamide]
< 100 nM	< 100 nM	1000 to 50000 nM	CC(C)c1c(-c2ccnc3[nH]ncc23)[nH]c2ccc(C3CCN(Cc4cnc(N)s4)CC3)cc12 [Example 926, 5-((4-(3-isopropyl-2-(1H-pyrazolo[3,4-b]pyridin-4-yl)-1H-indol-5-yl)piperidin-1-yl)methyl)thiazol-2-amine]
< 100 nM	< 100 nM	1000 to 50000 nM	Cc1cnc2[nH]ncc2c1-c1[nH]c2ccc(C3CCNCC3)cc2c1C(C)C [Example 46, 4-(3-isopropyl-5-(piperidin-4-yl)-1H-indol-2-yl)-5-methyl-1H-pyrazolo[3,4-b]pyridine]
100 to 1000 nM	100 to 1000 nM	> 50000 nM	CNC(=O)CN1CCC(c2ccc3[nH]c(-c4ccc5ncc(C#N)n5c4)c(C(C)C)c3c2)CC1 [Example 390, 2-(4-(2-(3-cyanoimidazo[1,2-a]pyridin-6-yl)-3-isopropyl-1H-indol-5-yl)piperidin-1-yl)-N-methylacetamide]
< 100 nM	< 100 nM	1000 to 50000 nM	COc1cc(-c2[nH]c3ccc(C4CCNCC4)cc3c2C(C)C)cc2nc(C)nn12 [Example 155, 7-(3-isopropyl-5-(piperidin-4-yl)-1H-indol-2-yl)-5-methoxy-2-methyl-[1,2,4]triazolo [1,5-a]pyridine]
100 to 1000 nM	100 to 1000 nM	100 to 1000 nM	CCc1c(-c2ccc3nncn3n2)[nH]c2ccc(C3CCNCC3)cc12 [Example 184, 6-(3-ethyl-5-(piperidin-4-yl)-1H-indol-2-yl)-[1,2,4] triazolo[4,3-b]pyridazine]
100 to 1000 nM	< 100 nM	100 to 1000 nM	Cc1c(-c2ccnc3[nH]cnc23)[nH]c2ccc(C3CCNCC3)cc12 [Example 60, 7-(3-methyl-5-(piperidin-4-yl)-1H-indol-2-yl)-3H-imidazo[4,5-b]pyridine]
< 100 nM	< 100 nM	100 to 1000 nM	CC(C)c1c(-c2ccnc3[nH]ncc23)[nH]c2ccc(C3CCN(C4CCCNC4)CC3)cc12 (stereo not drawn) [Example 653, 4-(5-([1,3′-bipiperidin]-4-yl)-3-isopropyl-1H-indol-2-yl)-1H-pyrazolo[3,4-b]pyridine]
> 3130 nM	100 to 1000 nM	> 50000 nM	C[C@@H](O)CC(=O)N1CCC(c2ccc3[nH]c(-c4cc(F)c5nccn5c4)c(CC(F)F)c3c2)CC1 [Example 603, (R)-1-(4-(3-(2,2-difluoroethyl)-2-(8-fluoroimidazo[1,2-a]pyridin-6-yl)-1H-indol-5-yl)piperidin-1-yl)-3-hydroxybutan-1-one]
100 to 1000 nM	< 100 nM	1000 to 50000 nM	CNC(=O)CN1CCC(c2ccc3[nH]c(-c4ccn5nncc5c4)c(C(C)C)c3c2)CC1 [Example 303, 2-(4-(2-([1,2,3]triazolo[1,5-a]pyridin-5-yl)-3-isopropyl-1H-indol-5-yl)piperidin-1-yl)-N-methylacetamide]
